In patent publication US10757937B2, “Sulfonamides that activate ABA receptors” (The Regents of the University of California, priority 2014, dated 2020):
Where two headings read alike, the source gives them in different places. Blank lines part the entries; values can stand above or below the compound they belong to.

Tests used:
[1] = molecular target: T1, PYL4 (Arabidopsis thaliana, UniProt O80920); assay: receptor-mediated PP2C (HAB1) inhibition in vitro assay; assay type: biochemical; conditions: compound at 25 μM; control without agonist = 100%
T1 construct: 6X-His; made in house; host or cells: E. coli BL21[DE3]pLysS
T1 sequence (O80920 1-207): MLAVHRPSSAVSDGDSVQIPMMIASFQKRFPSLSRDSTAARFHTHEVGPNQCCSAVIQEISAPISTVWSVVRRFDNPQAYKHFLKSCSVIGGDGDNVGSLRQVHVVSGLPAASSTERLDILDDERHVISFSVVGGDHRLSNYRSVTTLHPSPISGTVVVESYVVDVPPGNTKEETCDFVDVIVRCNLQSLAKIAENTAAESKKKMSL
T1 sequence (Q9CAJ0 23-511 partner): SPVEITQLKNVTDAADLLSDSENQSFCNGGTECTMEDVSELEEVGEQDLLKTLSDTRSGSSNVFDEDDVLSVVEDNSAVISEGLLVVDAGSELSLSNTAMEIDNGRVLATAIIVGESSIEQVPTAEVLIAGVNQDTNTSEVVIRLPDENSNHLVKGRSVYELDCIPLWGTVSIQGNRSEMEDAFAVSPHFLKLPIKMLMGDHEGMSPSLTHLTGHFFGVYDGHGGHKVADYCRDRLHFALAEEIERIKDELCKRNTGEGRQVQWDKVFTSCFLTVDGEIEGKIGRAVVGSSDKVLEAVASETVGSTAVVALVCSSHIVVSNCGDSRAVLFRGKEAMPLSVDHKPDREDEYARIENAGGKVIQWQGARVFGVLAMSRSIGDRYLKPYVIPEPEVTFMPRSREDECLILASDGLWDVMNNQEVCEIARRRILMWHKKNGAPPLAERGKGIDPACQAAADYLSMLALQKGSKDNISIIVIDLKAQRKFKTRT
Procedure: (§1) A family of 62 structurally related N-acyl sulfonamides (Tables I-V) were tested for ABA agonist activity using multiple receptor-mediated PP2C inhibition in vitro assays (Park et al., 2009). […] The constructs utilized for protein expression have been previously described (Okamoto et al. 2013). For constructs encoding 6X-His-fusion proteins (all receptors except PYL11), the coding sequences were of the receptors were cloned in the vector pET28, expressed in BL21[DE3]pLysS E. coli host cells at 18° C. overnight, and subsequently purified from sonicated lysates using Ni-NTA agarose (Qiagen, USA), according to the manufacturer's instructions. PYL11 was constructed as a maltose binding protein fusion in the vector pMAL-c, expressed in BL21┌DE3┐pLysS host cells and purified using amylose resin (New England Biolabs) as described by the manufacturer. Recombinant GST-HAB1 was expressed and purified as described previously (Park et al., 2009). PP2C activity assays were conducted using the fluorogenic phosphatase substrate 4-methylumbelliferyl-phosphate. Recombinant receptors and HAB1 were used to examine ligand-induced PP2C inactivation in response to multiple test compounds. Enzyme inhibition assays were conducted using the following assay conditions: 50 nM GST-PP2C, 100 mM Tris-OAc (pH 7.9), 100 mM NaCl, 1 mM MnCl2, 1% β-mercaptoethanol. […] Because of this, the ratio of each receptor used in the PP2C-inhibitions assays was established empirically as the minimum fold-excess of receptor required to elicit maximal PP2C inhibition at a saturating ABA concentration (10 μM).
(§2) Based on this criterion, we used a ratio of 2:1 receptor in the assays described herein.
(§3) Using the above assay conditions, compounds were tested at 25 μM for agonist activity on PYL4, PYL5, PYL8 and PYL9. […] Consequently, a subset of the compounds was tested at multiple concentrations against 11 receptors so that IC50 values and receptor selectivity profiles could be examined. […] Thus, the N-acylsulfonamide agonists disclosed are selective for monomeric receptors.
(§4) Additional compounds were tested for biological activity following the procedures of Example 1 with minor modifications.
(§5) For these in vitro receptor assays, the compounds listed were tested in in vitro PP2C inhibition assays with 50 uM of the test compound except for ABA (10 uM). IC50s were calculated from dose curves, but only for selected compounds.

[2] = molecular target: T2, PYL5 (Arabidopsis thaliana, UniProt Q9FLB1); assay: as above; assay type: biochemical; conditions: compound at 25 μM; control without agonist = 100%
T2 construct: 6X-His; made in house; host or cells: E. coli BL21[DE3]pLysS
T2 sequence (Q9FLB1 1-203): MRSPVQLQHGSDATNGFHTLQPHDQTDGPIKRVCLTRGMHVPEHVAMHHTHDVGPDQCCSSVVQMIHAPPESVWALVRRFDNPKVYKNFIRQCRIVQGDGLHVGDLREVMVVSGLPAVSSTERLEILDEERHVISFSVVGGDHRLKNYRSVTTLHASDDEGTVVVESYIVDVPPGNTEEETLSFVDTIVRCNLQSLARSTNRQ
T2 sequence (Q9CAJ0 23-511 partner): T1 sequence (Q9CAJ0 23-511 partner)
Procedure: as §1, §2, §3, §4, §5

[3] = molecular target: T3, PYL8 (Arabidopsis thaliana, UniProt Q9FGM1); assay: as above; assay type: biochemical; conditions: compound at 25 μM; control without agonist = 100%
T3 construct: 6X-His; made in house; host or cells: E. coli BL21[DE3]pLysS
T3 sequence (Q9FGM1 1-188): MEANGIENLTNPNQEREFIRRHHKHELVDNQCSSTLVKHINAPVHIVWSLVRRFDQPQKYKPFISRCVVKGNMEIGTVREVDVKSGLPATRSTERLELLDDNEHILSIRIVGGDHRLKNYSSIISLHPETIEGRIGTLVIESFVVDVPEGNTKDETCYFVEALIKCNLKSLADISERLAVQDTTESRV
T3 sequence (Q9CAJ0 23-511 partner): T1 sequence (Q9CAJ0 23-511 partner)
Procedure: as §1, §2, §3, §4, §5

[4] = molecular target: T4, PYL9 (Arabidopsis thaliana, UniProt Q84MC7); assay: as above; assay type: biochemical; conditions: compound at 25 μM; control without agonist = 100%
T4 construct: 6X-His; made in house; host or cells: E. coli BL21[DE3]pLysS
T4 sequence (Q84MC7 1-187): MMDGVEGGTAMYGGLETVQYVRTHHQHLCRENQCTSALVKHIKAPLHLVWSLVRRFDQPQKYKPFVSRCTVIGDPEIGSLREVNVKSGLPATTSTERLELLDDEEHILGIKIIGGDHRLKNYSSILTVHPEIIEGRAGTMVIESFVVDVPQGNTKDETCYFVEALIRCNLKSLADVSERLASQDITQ
T4 sequence (Q9CAJ0 23-511 partner): T1 sequence (Q9CAJ0 23-511 partner)
Procedure: as §1, §2, §3, §4, §5

[5] = system: Arabidopsis seed germination and hypocotyl growth; assay: Arabidopsis seed germination and hypocotyl growth; assay type: in vivo; conditions: − = none; for Hypocotyl Growth Inhibition / Germination Inhibition: Germination Inhibition II, tested at 10 and 50 uM; for Hypocotyl Growth Inhibition: lowest concentration that inhibited hypocotyl growth in wells where seeds germinated; for Germination Inhibition: lowest of the two concentrations that inhibited; for minimal effective concentration: Table VIII, tested at 10 or 50 μM, lowest inhibiting concentration
Procedure: We germinated seeds from wild type on ½× strength Murashige and Skoog salts growth medium containing either 10 or 50 μM for all 62 compounds as well as 1 μM (+)-ABA and mock controls. […] To investigate if the any of the compounds are sufficient to control vegetative ABA responses, we treated three week old Arabidopsis plants with aqueous solutions containing 0.02% Silwet and either 50 μM of selected N-acylsulfonamides, 50 μM ABA or 0.1% DMSO (the carrier solvent for the compounds tested). The leaf temperatures were subsequently examined using a thermal imaging camera 24 hours after treatment. It is well known that ABA-induced guard cell closure reduces transpiration, which leads to increases in leaf temperatures. It has been estimated that a 1° C. increase in leaf temperature correlates with a decrease in transpiration rates by approximately 50% (Sirault et al., 2009). Since guard cell aperture is the primary determinant of transpiration rates, thermal imaging is a useful way to indirectly infer relative transpiration rates and, indirectly, relative degrees of guard cell opening at the whole plant level.
as §4
For the germination inhibition experiment, the compounds were tested at 10 and 50 uM. The amounts shown are the lowest of the two concentrations that either inhibited germination or hypocotyl growth in wells where seeds germinated.
For the germination test, the compounds were tested at 1, 5, 10, 25 and 50 uM. The amounts shown are the lowest of the concentrations that either inhibited germination or hypocotyl growth in the wells where seeds germinated.

[6] = ABA at 1 μM, read-out: Germination Inhibition
[7] = read-out: Hypocotyl Growth Inhibition

PP2C Activity (25 μm) PYL4 [1]: 89% | PP2C Activity (25 μm) PYL5 [2]: 23% | PP2C Activity (25 μm) PYL8 [3]: 69% | PP2C Activity (25 μm) PYL9 [4]: 47%
SMILES: CC(C)(C(=O)NS(=O)(=O)Cc1ccc(C#N)cc1)c1ccc(Br)cc1 [Compound 2]
Hypocotyl Growth Inhibition [5]: 10 µM | Germination Inhibition [5]: 50 µM | minimal effective concentration [5, 6]: 50 µM | minimal effective concentration [5, 7]: 10 µM

PP2C Activity (25 μm) PYL4 [1]: 92% | PP2C Activity (25 μm) PYL5 [2]: 43% | PP2C Activity (25 μm) PYL8 [3]: 62% | PP2C Activity (25 μm) PYL9 [4]: 47%
SMILES: Cc1ccc(C(C)(C)C(=O)NS(=O)(=O)Cc2ccc(C#N)cc2)cc1 [Compound 12]
Hypocotyl Growth Inhibition [5]: 50 µM | minimal effective concentration [5, 7]: 50 µM

The next lines start with the compound.

SMILES: CC(C)(C(=O)NS(=O)(=O)Cc1ccc(C#N)cc1)c1cccc(F)c1 [Compound 16]
PP2C Activity (25 μm) PYL4 [1]: 93% | PP2C Activity (25 μm) PYL5 [2]: 47% | PP2C Activity (25 μm) PYL8 [3]: 43% | PP2C Activity (25 μm) PYL9 [4]: 30% | Hypocotyl Growth Inhibition [5]: 10 µM | Germination Inhibition [5]: 50 µM | minimal effective concentration [5, 6]: 50 µM | minimal effective concentration [5, 7]: 10 µM

SMILES: N#Cc1ccc(CS(=O)(=O)NC(=O)C2(c3ccccc3)CC2)cc1 [Compound 27]
PP2C Activity (25 μm) PYL4 [1]: 97% | PP2C Activity (25 μm) PYL5 [2]: 39% | PP2C Activity (25 μm) PYL8 [3]: 77% | PP2C Activity (25 μm) PYL9 [4]: 63% | Hypocotyl Growth Inhibition [5]: 50 µM | minimal effective concentration [5, 7]: 50 µM

SMILES: CC(C)(C)c1ccc(C2(C(=O)NS(=O)(=O)Cc3ccc(C#N)cc3)CC2)cc1 [Compound 34]
PP2C Activity (25 μm) PYL4 [1]: 95% | PP2C Activity (25 μm) PYL5 [2]: 99% | PP2C Activity (25 μm) PYL8 [3]: 103% | PP2C Activity (25 μm) PYL9 [4]: 107% | Germination Inhibition [5]: 50 µM | minimal effective concentration [5, 6]: 50 µM

SMILES: CC(C)(C(=O)NS(=O)(=O)Cc1ccc(C#N)cc1)c1ccc2c(c1)OCCO2 [Compound 53]
PP2C Activity (25 μm) PYL4 [1]: 89% | PP2C Activity (25 μm) PYL5 [2]: 95% | PP2C Activity (25 μm) PYL8 [3]: 99% | PP2C Activity (25 μm) PYL9 [4]: 98% | Hypocotyl Growth Inhibition [5]: 50 µM | minimal effective concentration [5, 7]: 50 µM

SMILES: COc1ccc(C(C)(C)C(=O)NS(=O)(=O)Cc2ccc(C#N)cc2)cc1 [Compound 22]
PP2C Activity (25 μm) PYL4 [1]: 95% | PP2C Activity (25 μm) PYL5 [2]: 85% | PP2C Activity (25 μm) PYL8 [3]: 91% | PP2C Activity (25 μm) PYL9 [4]: 92% | Hypocotyl Growth Inhibition [5]: 10 µM | minimal effective concentration [5, 7]: 10 µM
